The subject of test [1] is MOLP-8 human multiple myeloma cell line. The test can be described thus: MOLP8 Caspase-Glo 3/7 luminescent assay. In kind it is cell-based. To be noted: 2 hours incubation, averaged values over all runs on all batches. The source says:
(§1) MCL-1 is a regulator of apoptosis and is highly over-expressed in tumor cells that escape cell death. The assay evaluates the cellular potency of small-molecule compounds targeting regulators of the apoptosis pathway, primarily MCL-1, Bfl-1, Bcl-2, and other proteins of the Bcl-2 family. Protein-protein inhibitors disrupting the interaction of anti-apoptotic regulators with BH3-domain proteins initiate apoptosis.
The Caspase-Glo® 3/7 Assay is a luminescent assay that measures caspase-3 and -7 activities in purified enzyme preparations or cultures of adherent or suspension cells. The assay provides a proluminescent caspase-3/7 substrate, which contains the tetrapeptide sequence DEVD. This substrate is cleaved to release aminoluciferin, a substrate of luciferase used in the production of light. Addition of the single Caspase-Glo® 3/7 Reagent in an “add-mix-measure” format results in cell lysis, followed by caspase cleavage of the substrate and generation of a “glow-type” luminescent signal.
This assay uses the MOLP-8 human multiple myeloma cell line, which is sensitive to MCL-1 inhibition.
Cell cultures were maintained between 0.2 and 2.0×10^6 cells/mL. The cells were harvested by collection in 50 mL conical tubes. The cells were then pelleted at 500 g for 5 mins before removing supernatant and resuspension in fresh pre-warmed culture medium. The cells were counted and diluted as needed.
The assay reagent was prepared by transferring the buffer solution to the substrate vial and mixing. The solution may be stored for up to 1 week at 4° C. with negligible loss of signal.
Compounds were delivered in assay-ready plates (Proxiplate) and stored at −20° C.
Assays always include 1 reference compound plate containing reference compounds. The plates were spotted with 40 nL of compounds (0.5% DMSO final in cells; serial dilution; 30 μM highest conc. ⅓ dilution, 10 doses, duplicates). The compounds were used at room temperature and 4 μL of pre-warmed media was added to all wells except column 2 and 23. The negative control was prepared by adding 1% DMSO in media. The positive control was prepared by adding the appropriate positive control compound in final concentration of 60 μM in media. The plate was prepared by adding 4 μL negative control to column 23, 4 μL positive control to column 2 and 4 μL cell suspension to all wells in the plate. The plate with cells was then incubated at 37° C. for 2 hours. The assay signal reagent is the Caspase-Glo solution described above, and 8 μL was added to all wells. The plates were then sealed and measured after 30 minutes.
The activity of a test compound was calculated as percent change in apoptosis induction as follows:
LC=median of the Low Control values • =Central Reference in Screener • =DMSO • =0% ΠC=Median of the High Control values • =Scale Reference in Screener • =30 pM of positive control • =100% apoptosis induction
% Effect (AC50)=100−(sample−LC)/(HC−LC)*100
% Control=(sample/HC)*100
% Control min=(sample−LC)/(HC−LC)*100

The next test has as its system MOLP8 cells. The test can be described thus: MOLP8 CellEvent Caspase-3/7 Green apoptosis activation assay (IncuCyte live-cell kinetic readout). To be noted: Homo sapiens, each independent run listed. The format is cell-based. On the procedure:
as §1
Activation of the apoptotic pathway was measured using the CellEvent™ Caspase-3/7 Green ReadyProbes™ Reagent (Thermo Fisher C10423, C10723). This assay produces a green fluorescent stain in cells that enter the apoptosis pathway. CellEvent® Caspase-3/7 Green reagent is a four amino acid peptide (DEVD) conjugated to a nucleic acid-binding dye that is non-fluorescent when not bound to DNA. The CellEvent® Caspase-3/7 Green reagent is intrinsically non-fluorescent, as the DEVD peptide inhibits binding of the dye to DNA. Upon activation of caspase-3/7 in apoptotic cells, the DEVD peptide is cleaved and the free dye can bind DNA, generating a bright green fluorescence. The activation of Caspase-3 and Caspase-7 is downstream of inhibition of MCL-1 or other apoptosis inhibiting proteins in cell lines that are dependent on them.
The live-cell readout on the IncuCyte permits tracking over time of the Caspase activation. […] The IncuCyte readout also allows one to normalize for cell number, as the suspension cells are hard to distribute evenly.
Signals were measured every 2 h for a duration of 22 h. The ratio of the Caspase mask to the Confluence mask, per image, as raw data, was calculated and the kinetic trace for every well was exported to Genedata Screener for analysis.
In Genedata Screener values for 6 h, 12 h, and 22 h from the kinetic traces were extracted. The values were normalized against negative controls (untreated cells). A standard dose-response analysis was performed on the normalized data.
The following data was reported at each of the following three aforementioned time points: (a) The dose-response curve, (b) The qAC50 and qAC50 Mode, and (c) Max Activity.
Cells were maintained in culture medium containing 10% Heat Inactivated (HI) FBS, 2 mM L-Glutamine and 50 µg/mL Gentamycin phenol red free RPMI-1640. Cells were split at 0.4 million/mL twice a week.
On Day 1, plates containing individual wells with test compounds at 10 mM concentration, 150 nL per well. The final concentrations range from […] compound (and no compound control) and compounds were thawed at room temperature for 1 hour. 25 μl of prewarmed medium was added into each well by multidrop (column 1, 3-22, 24), followed by addition of DMSO control (0.6% DMSO) in column 2. The plate was sealed using Breathe-Easy® sealing membrane and shaken for 30 min at room temperature to dissolve the test compound(s) in medium. The plate was then kept in the incubator for 1 hour at 37° C., 5% CO2.
MOLP8 cells in medium at […] (20000/50 μl final in assay) were prepared with CellEvent™ Caspase-3/7 Green Detection Reagent at 4 μM (2 μM final in assay). Once prepared, the cells were added to the test compound plate in an amount of 20000 and the plate was immediately placed in the IncuCyte and imaging started using following settings: 10× objective, 2 s exposure time in green channel, interval of 2 h, acquisition stopped after 22 h.
For analysis in IncuCyte, a Basic Analysis protocol was defined to calculate the “confluence” and “caspase” areas from the “Phase” and “green” images, respectively, as follows: (a) Confluence: Segmentation Adjustment 1, Hole Fill 0, Adjust Size −2, No filters (b) Caspase: Top-Hat segmentation, Radius 10, Threshold 0.3 GCU, Edge Split On with sensitivity 0, Hole Fill 0, Adjust Size 1, and filter on a minimum Area of 20 μm^2. The analyzer is trained on a sufficient number of positive and negative control wells, as well as compound treated wells, verifying that the “confluence” layer detects both live and dead (condensed) cells. […]

Like-named read-outs stand apart in the source and are kept apart here. Bounds are passed on as bounds.

`Cc1c(C(=O)O)n2c3ccc(Cl)c(c13)-c1c(nn(C)c1C)CN(C)Cc1cc(n(C)n1)CSc1cc(c3ccccc3c1)OCCC2` (single isomer, unassigned) [Compound 5] displayed an AC50 in test [1] (Homo sapiens, MOLP-8, 2 h) of 14500 nM. Still for that read-out and setting: to `Cc1c(C(=O)O)n2c3ccc(Cl)c(c13)-c1c(nn(C)c1C)CSCc1cc([nH]n1)CSc1cc(c3ccccc3c1)OCCC2` (single isomer, unassigned) [Compound 7] belongs 70 nM. With `Cc1c(C(=O)O)n2c3ccc(Cl)c(c13)-c1c(nn(C)c1C)CSCc1cc([nH]n1)CSc1cc(c3ccccc3c1)OCCC2` (single isomer, unassigned) [Compound 8], the AC50 in test [1] was 90 nM. In test [1] (Homo sapiens, MOLP-8, 2 h), `CCn1nc2cc1CSc1cc(c3ccccc3c1)OCCCn1c(C(=O)O)c(C)c3c(c(Cl)ccc31)-c1c(nn(C)c1C)CSC2` (single isomer, unassigned) [Compound 10] had an AC50 of 120 nM. Still for that read-out and setting: to `CCn1nc2cc1CSCc1nn(C)c(C)c1-c1c(Cl)ccc3c1c(C)c(C(=O)O)n3CCCOc1cc(cc3ccccc13)SC2` (single isomer, unassigned) [Compound 11] belongs greater than 30000 nM. The same measure, in the same setting: to `Cc1c(C(=O)O)n2c3ccc(Cl)c(c13)-c1c(nn(C)c1C)CSCc1cc(n(C(C)C)n1)CSc1cc(c3ccccc3c1)OCCC2` (single isomer, unassigned) [Compound 12] belongs 510 nM.

In test [1] (Homo sapiens, MOLP-8, 2 h), `Cc1c(C(=O)O)n2c3ccc(Cl)c(c13)-c1c(nn(C)c1C)CSCc1cc(nn1C(C)C)CSc1cc(c3ccccc3c1)OCCC2` (single isomer, unassigned) [Compound 13] had an AC50 of 1250 nM. Compound `Cc1[nH]nc2c1-c1c(Cl)ccc3c1c(C)c(C(=O)O)n3CCCOc1cc(cc3ccccc13)SCc1cc(nn1C)CN(C)C2` (single isomer, unassigned) [Compound 14] had an AC50 in test [1] of 920 nM. Same read-out and setting: to `Cc1[nH]nc2c1-c1c(Cl)ccc3c1c(C)c(C(=O)O)n3CCCOc1cc(cc3ccccc13)SCc1cc(nn1C)CN(C)C2` (single isomer, unassigned) [Compound 15] belongs 15300 nM; to `Cc1[nH]nc2c1-c1c(Cl)ccc3c1c(C)c(C(=O)O)n3CCCOc1cc(cc3ccccc13)SCc1cc(nn1C)CSC2` (single isomer, unassigned) [Compound 16], 540 nM. For the compound `Cc1[nH]nc2c1-c1c(Cl)ccc3c1c(C)c(C(=O)O)n3CCCOc1cc(cc3ccccc13)SCc1cc(nn1C)CSC2` (single isomer, unassigned) [Compound 17], the AC50 in test [1] is 21300 nM. Turning to `Cc1c(C(=O)O)n2c3ccc(Cl)c(c13)-c1c(nn(C)c1C)CNCc1cc(n(C)n1)CSc1cc(c3ccccc3c1)OCCC2` [Compound 4, 15-Chloro-13,21,25,61-tetramethyl-11H,21H,61H-10-oxa-8-thia-4-aza-1(4,1)-indola-2(4,3),6(3,5)-dipyrazola-9(3,1)-naphthalenacyclotridecaphane-12-Carboxylic acid], the AC50 in test [1] (Homo sapiens, MOLP-8, 2 h) was 920 nM; in the test on MOLP8 cells (MOLP-8, 6 h, 6 h, read-out: MOLP8 Caspase 3/7 AC50 at 6 h) it was 1620 nM; in the test on MOLP8 cells (MOLP-8, 12 h, 12 h, read-out: MOLP8 Caspase 3/7 AC50 at 12 h), 1590 nM; with MOLP8 cells (MOLP-8, 22 h, 22 h, read-out: MOLP8 Caspase 3/7 AC50 at 22 h), 1380 nM. For the compound `Cc1c(C(=O)O)n2c3ccc(Cl)c(c13)-c1c(nn(C)c1C)CN(C(C)C)Cc1cc(n(C)n1)CSc1cc(c3ccccc3c1)OCCC2` [Compound 9], the AC50 in test [1] (Homo sapiens, MOLP-8, 2 h) was determined as 160 nM.

The values are drawn from patent US20220306653A1, “MACROCYCLIC INHIBITORS OF MCL-1” (Janssen Pharmaceutica NV, priority 2019, published 2022).
